system: THP-1 cells; test: Lamp1 lysosomal exocytosis assay; assay type: cell-based; details: Homo sapiens, 55 min, 55 min incubation, top dose 20 μM
Method: For the Lamp1 lysosomal exocytosis assay, a human monocytic suspension cell line (THP-1) was used. Cells in culture should be used between a density of […] and 1.2e6/mL on the day of the assay. For each 96-well assay plate to be used, pellet 11e6 THP-1 cells at 330×g for 5 min in a 50 mL conical tube, aspirate media and resuspend in 22 mLs of RPMI 1640/10% FBS media for a final cell concentration of 5e5/mL. Prior to addition of cells to the assay plate, perform a 7 pt dilution curve using a top dose of compound at 2 mM and use a 3-fold serial dilution, the 8th point is DMSO only. Final top dose of compound in the assay was 20 μM. 2 μL of each serial dilution was transferred to a new 96-well v-bottom assay plate. 198 μL of cells (1e5 total cells/well) was prepared as above in each well of the assay plate and incubated at 37° C./5% CO2/95% RH for 55 min. After the 55 min incubation, cells were pelleted for 5 min at 4 C at 400×g in a tabletop centrifuge. The media was separated from the cell pellets in the plate. The pellets were washed using 200 μL ice cold buffer (PBS Ca^++/Mg^++ containing 2% final BSA and 80 μM final Dynasore). Cells were pelleted again at 400×g-5 min in a 4° C. tabletop centrifuge. Buffer was separated from cells. Each well was suspended in 75 uL Lamp1-PE antibody buffer (PBS Ca^++/Mg^++ containing 2% final BSA with 80 uM final Dynasore and 1:800 final dilution of Lamp 1-PE labeled antibody). After a 45 min antibody incubation on ice, 25 μL of sytox green was added (I drop/mL buffer), and each well was mixed and incubated for an additional 15 min on ice. After the 15 min sytox green incubation, 100 μL of ice-cold buffer (PBS Ca^++/Mg^++ containing 2% final BSA and 80 uM final Dynasore) was added and cells were pelleted for 5 min at 400×g. The buffer was removed and each sample was resuspended in 100 uL of ice-cold buffer (PBS Ca^++/Mg^++ containing 2% final BSA and 80 μM final Dynasore). FACs gating strategy: FACS analyze for sytox green (A488) and Lamp1-PE (DsRed). First gate against FSC-A/SSC-A to find non-fragmented or ‘live’ THP-1 cells. Next gate against FITC-A/FSC-A to omit sytox green positive cells. Then gate for FSC-A/FSC-H to remove any doublet cells. The last gate was a histogram for PE. The statistics for ‘count’ and ‘geometric mean fluorescence intensity’ (gWFI) for PE were repoted on the last gate.
Compounds having an activity designated as “++++” provided an exocytosis readout of ≤0.50 μM; compounds having an activity designated as “+++” provided an exocytosis readout of 0.51-1.00 μM; compounds having an activity designated as “++” provided an exocytosis readout of 1.01-5.00 μM; and compounds having an activity designated as “+” provided an exocytosis readout of ≥5.01 μM

Row | SMILES | EC50
1 | CN(C)S(=O)(=O)c1ccc(S(=O)(=O)N2CC3(CCN(Cc4ccccc4)CC3)c3c(F)cccc32)cc1 [Compound I-155, 4-((1′-benzyl-4-fluorospiro[indoline-3,4′-piperidin]-1-yl)sulfonyl)-N,N-dimethylbenzenesulfonamide] | ≤ 0.5 µM
2 | Cn1cc(NC(=O)N2CCC3(CC2)CN(S(=O)(=O)c2ccc(C(F)F)cc2)c2ccccc23)cn1 [Compound I-200, 1-((4-(difluoromethyl)phenyl)sulfonyl)-N-(1-methyl-1H-pyrazol-4-yl)spiro[indoline-3,4′-piperidine]-1′-carboxamide] | ≥ 5.01 µM
3 | O=S(=O)(c1ccc(C(F)F)cc1)N1CC2(CCC(F)(F)CC2)c2ccccc21 [Compound I-138, 1′-[4-(difluoromethyl)benzenesulfonyl]-4,4-difluoro-1′,2′-dihydrospiro[cyclohexane-1,3′-indole]] | ≥ 5.01 µM
4 | O=C(OCc1cnoc1)N1CCC2(CC1)CN(S(=O)(=O)c1ccc(C(F)F)cc1)c1ccccc12 [Compound I-173, isoxazol-4-ylmethyl 1-((4-(difluoromethyl)phenyl)sulfonyl)spiro[indoline-3,4′-piperidine]-1′-carboxylate] | 1.01 to 5 µM
5 | O=C(NCC(F)F)N1CCC2(CC1)CN(S(=O)(=O)c1ccc(C(F)F)cc1)c1ccccc12 [Compound I-194, N-(2,2-difluoroethyl)-1-((4-(difluoromethyl)phenyl)sulfonyl)spiro[indoline-3,4′-piperidine]-1′-carboxamide] | ≥ 5.01 µM
6 | O=C(NCC1CC1)N1CCC2(CC1)CN(S(=O)(=O)c1ccc(C(F)F)cc1)c1ccccc12 [Compound I-193, N-(cyclopropylmethyl)-1-((4-(difluoromethyl)phenyl)sulfonyl)spiro[indoline-3,4′-piperidine]-1′-carboxamide] | ≥ 5.01 µM
7 | O=C(OCc1ccccn1)N1CCC2(CC1)CN(S(=O)(=O)c1ccc(C(F)F)cc1)c1ccccc12 [Compound I-141, pyridin-2-ylmethyl 1-((4-(difluoromethyl)phenyl)sulfonyl)spiro[indoline-3,4′-piperidine]-1′-carboxylate] | 1.01 to 5 µM
8 | O=C(OCc1ccncc1)N1CCC2(CC1)CN(S(=O)(=O)c1ccc(C(F)F)cc1)c1ccccc12 [Compound I-159, pyridin-4-ylmethyl 1-((4-(difluoromethyl)phenyl)sulfonyl)spiro[indoline-3,4′-piperidine]-1′-carboxylate] | ≥ 5.01 µM
9 | O=C(NCc1ccccc1)N1CCC2(CC1)CN(S(=O)(=O)c1ccc(C(F)F)cc1)c1ccccc12 [Compound I-179, N-benzyl-1-((4-(difluoromethyl)phenyl)sulfonyl)spiro[indoline-3,4′-piperidine]-1′-carboxamide] | ≥ 5.01 µM
10 | Cn1cc(COC(=O)N2CCC3(CC2)CN(S(=O)(=O)c2ccc(C(F)F)cc2)c2ccccc23)cn1 [Compound I-176] | 1.01 to 5 µM
11 | O=C(NCc1ccccc1)C1CCC2(CC1)CN(S(=O)(=O)c1ccc(C(F)F)cc1)c1ccccc12 (stereo not drawn) [Compound I-143, N-benzyl-1′-((4-(difluoromethyl)phenyl)sulfonyl)spiro[cyclohexane-1,3′-indoline]-4-carboxamide] | ≥ 5.01 µM

Other lines, results leading:

Row | EC50 | SMILES
12 | ≥ 5.01 µM | O=C(NCc1ccccn1)C1CCC2(CC1)CN(S(=O)(=O)c1ccc(C(F)F)cc1)c1ccccc12 (stereo not drawn) [Compound I-231, 1′-((4-(difluoromethyl)phenyl)sulfonyl)-N-(pyridin-2-ylmethyl)spiro[cyclohexane-1,3′-indoline]-4-carboxamide]
13 | ≥ 5.01 µM | O=C(NC1CCOCC1)N1CCC2(CC1)CN(S(=O)(=O)c1ccc(C(F)F)cc1)c1ccccc12 [Compound I-205, 1-((4-(difluoromethyl)phenyl)sulfonyl)-N-(tetrahydro-2H-pyran-4-yl)spiro[indoline-3,4′-piperidine]-1′-carboxamide]
14 | ≥ 5.01 µM | COc1ccc(NC(=O)N2CCC3(CC2)CN(S(=O)(=O)c2ccc(C(F)F)cc2)c2ccccc23)cn1 [Compound I-216, 1-((4-(difluoromethyl)phenyl)sulfonyl)-N-(6-methoxypyridin-3-yl)spiro[indoline-3,4′-piperidine]-1′-carboxamide]
15 | ≥ 5.01 µM | O=C(NCC1CCOC1)N1CCC2(CC1)CN(S(=O)(=O)c1ccc(C(F)F)cc1)c1ccccc12 (stereo not drawn) [Compound I-204]
16 | ≥ 5.01 µM | O=C(C1CCC2(CC1)CN(S(=O)(=O)c1ccc(C(F)F)cc1)c1ccccc12)N1CCCC1 (stereo not drawn) [Compound I-237, (1′-((4-(difluoromethyl)phenyl)sulfonyl)spiro[cyclohexane-1,3′-indolin]-4-yl)(pyrrolidin-1-yl)methanone]
17 | ≥ 5.01 µM | O=C(NCC1CCOCC1)N1CCC2(CC1)CN(S(=O)(=O)c1ccc(C(F)F)cc1)c1ccccc12 [Compound I-215, 1-((4-(difluoromethyl)phenyl)sulfonyl)-N-((tetrahydro-2H-pyran-4-yl)methyl)spiro[indoline-3,4′-piperidine]-1′-carboxamide]
18 | ≥ 5.01 µM | O=C(Nc1cncc(F)c1)N1CCC2(CC1)CN(S(=O)(=O)c1ccc(C(F)F)cc1)c1ccccc12 [Compound I-210, 1-((4-(difluoromethyl)phenyl)sulfonyl)-N-(5-fluoropyridin-3-yl)spiro[indoline-3,4′-piperidine]-1′-carboxamide]
19 | ≥ 5.01 µM | O=C(NC1CCC(F)(F)CC1)N1CCC2(CC1)CN(S(=O)(=O)c1ccc(C(F)F)cc1)c1ccccc12 [Compound I-218, N-(4,4-difluorocyclohexyl)-1-((4-(difluoromethyl)phenyl)sulfonyl)spiro[indoline-3,4′-piperidine]-1′-carboxamide]
20 | ≥ 5.01 µM | Cn1cc(CNC(=O)N2CCC3(CC2)CN(S(=O)(=O)c2ccc(C(F)F)cc2)c2ccccc23)cn1 [Compound I-209, 1-((4-(difluoromethyl)phenyl)sulfonyl)-N-((1-methyl-1H-pyrazol-4-yl)methyl)spiro[indoline-3,4′-piperidine]-1′-carboxamide]
21 | ≥ 5.01 µM | Cc1cc(CNC(=O)N2CCC3(CC2)CN(S(=O)(=O)c2ccc(C(F)F)cc2)c2ccccc23)no1 [Compound I-211, 1-((4-(difluoromethyl)phenyl)sulfonyl)-N-((5-methylisoxazol-3-yl)methyl)spiro[indoline-3,4′-piperidine]-1′-carboxamide]
22 | ≥ 5.01 µM | O=C(NCc1ccncc1)C1CCC2(CC1)CN(S(=O)(=O)c1ccc(C(F)F)cc1)c1ccccc12 (stereo not drawn) [Compound I-233, 1′-((4-(difluoromethyl)phenyl)sulfonyl)-N-(pyridin-4-ylmethyl)spiro[cyclohexane-1,3′-indoline]-4-carboxamide]
23 | ≥ 5.01 µM | Cn1cc(NC(=O)N2CCC3(CC2)CN(S(=O)(=O)c2ccc(C(F)F)cc2)c2ccccc23)c(=O)n(C)c1=O [Compound I-229, 1-((4-(difluoromethyl)phenyl)sulfonyl)-N-(1,3-dimethyl-2,4-dioxo-1,2,3,4-tetrahydropyrimidin-5-yl)spiro[indoline-3,4′-piperidine]-1′-carboxamide]
24 | ≥ 5.01 µM | CCn1cc(CNC(=O)C2CCC3(CC2)CN(S(=O)(=O)c2ccc(C(F)F)cc2)c2ccccc23)cn1 (stereo not drawn) [Compound I-241, 1′-((4-(difluoromethyl)phenyl)sulfonyl)-N-((1-ethyl-1H-pyrazol-4-yl)methyl)spiro[cyclohexane-1,3′-indoline]-4-carboxamide]
